Test results published in patent US7074789B2, “Kinase inhibitors” (Amgen Inc., priority 1999, dated 2006).

Key:
Type in all cases: biochemical
Lyn = target: T1, Lyn (Homo sapiens, UniProt P07948); test: Kinase inhibition assay (33P transfer), Lyn; conditions: Table 6, Lyn-1 kinase inhibition class
T1 construct: Kinases are expressed as either kinase domains or full length constructs; made in house
Method in brief: (§1)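 Recombinant kinase domains or full-length GST- or His-tagged constructs, from E. coli or baculovirus/High Five cells, sometimes with regulatory polypeptides. Transfer of 33P from ATP to plate-bound poly(Glu,Tyr) 4:1 or poly(Arg,Ser) 3:1 counted by liquid scintillation after phosphoric acid wash; IC50 is the concentration halving incorporation.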

Src = target: T2, Src (Homo sapiens, UniProt P12931); test: Kinase inhibition assay (33P transfer), Src; conditions: Table 6, Src-1 kinase inhibition class
T2 construct: Kinases are expressed as either kinase domains or full length constructs; made in house
Method in brief: as §1

PDGFRB = target: T3, PDGFRB (Homo sapiens, UniProt P09619); test: Kinase inhibition assay (33P transfer), PDGFRB; conditions: read-out: PDGFRB-1
T3 construct: Kinases are expressed as either kinase domains or full length constructs; made in house

AKT = target: T4, AKT (Homo sapiens, UniProt Q9Y243); test: Kinase inhibition assay (33P transfer), AKT; conditions: Table 2, kinase inhibition class; read-out: AKT3-1
T4 construct: Kinases are expressed as either kinase domains or full length constructs; made in house
Method in brief: (§2)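 Each kinase, expressed as a GST- or polyHis-tagged domain or full-length protein, phosphorylated plate-attached poly(Glu,Tyr) 4:1 or poly(Arg,Ser) 3:1 using 33P-ATP. Bound radioactivity was measured by scintillation after a 0.5% phosphoric acid wash.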

Lck = target: T5, Lck (Homo sapiens, UniProt P06239); test: Kinase inhibition assay (33P transfer), Lck; conditions: read-out: Lck-1
T5 construct: Kinases are expressed as either kinase domains or full length constructs; made in house
Method in brief: as §2

ErbB4 = target: T6, ErbB4 (Homo sapiens, UniProt Q15303); test: Kinase inhibition assay (33P transfer), ErbB4; conditions: read-out: ErbB4-1
T6 construct: Kinases are expressed as either kinase domains or full length constructs; made in house

ErbB2 = target: T7, ErbB2 (Homo sapiens, UniProt P04626); test: Kinase inhibition assay (33P transfer), ErbB2; conditions: read-out: ErbB2-2
T7 construct: Kinases are expressed as either kinase domains or full length constructs; made in house
Method in brief: as §1

Zap-70 = target: T8, Zap-70 (Homo sapiens, UniProt P43403); test: Kinase inhibition assay (33P transfer), Zap-70; conditions: read-out: Zap-1
T8 construct: Kinases are expressed as either kinase domains or full length constructs; made in house
T8 sequence (P43403 1-619): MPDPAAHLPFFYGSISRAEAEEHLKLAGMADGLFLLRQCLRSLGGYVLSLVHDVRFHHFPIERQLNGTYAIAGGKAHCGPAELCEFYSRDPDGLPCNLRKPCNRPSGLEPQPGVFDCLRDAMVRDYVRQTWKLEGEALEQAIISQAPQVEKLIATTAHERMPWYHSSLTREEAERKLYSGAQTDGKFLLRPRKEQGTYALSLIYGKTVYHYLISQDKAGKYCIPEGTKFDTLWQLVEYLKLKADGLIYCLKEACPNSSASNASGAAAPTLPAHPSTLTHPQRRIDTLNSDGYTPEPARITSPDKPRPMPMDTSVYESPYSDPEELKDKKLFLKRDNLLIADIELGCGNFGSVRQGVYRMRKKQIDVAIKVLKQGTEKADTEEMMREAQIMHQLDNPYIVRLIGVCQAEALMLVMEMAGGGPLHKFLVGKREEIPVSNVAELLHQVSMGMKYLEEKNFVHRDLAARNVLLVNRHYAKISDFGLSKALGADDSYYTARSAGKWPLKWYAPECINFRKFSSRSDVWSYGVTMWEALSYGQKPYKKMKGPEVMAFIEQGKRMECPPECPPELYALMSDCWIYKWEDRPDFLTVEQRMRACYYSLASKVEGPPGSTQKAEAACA
Method in brief: as §2

Ret-1 = target: T9, Ret-1 (Homo sapiens, UniProt P07949); test: Kinase inhibition assay (33P transfer), Ret; conditions: Table 6, Ret-1 kinase inhibition class
T9 construct: Kinases are expressed as either kinase domains or full length constructs; made in house

Kdr = target: T10, Kdr (Homo sapiens, UniProt P35968); test: Kinase inhibition assay (33P transfer), Kdr; conditions: read-out: KDR-1
T10 construct: Kinases are expressed as either kinase domains or full length constructs; made in house
Method in brief: as §2

c-Met = target: T11, c-Met (Homo sapiens, UniProt P08581); test: Kinase inhibition assay (33P transfer), c-Met; conditions: Table 2, kinase inhibition class; read-out: Met-1
T11 construct: Kinases are expressed as either kinase domains or full length constructs; made in house
Method in brief: as §1

Tek = target: T12, Tek (Homo sapiens, UniProt Q02763); test: Kinase inhibition assay (33P transfer), Tek; conditions: read-out: Tek-1
T12 construct: Kinases are expressed as either kinase domains or full length constructs; made in house
Method in brief: as §1

IGFR-1 = target: T13, IGFR-1 (Homo sapiens, UniProt P08069); test: Kinase inhibition assay, IGFR-1 (Table 2); conditions: Table 2, kinase inhibition class
T13 construct: Kinases are expressed as either kinase domains or full length constructs; made in house

EGFR = target: T14, EGFR (Homo sapiens, UniProt P00533); test: Kinase inhibition assay (33P transfer), EGFR; conditions: Table 2, kinase inhibition class; read-out: EGFR-1
T14 construct: Kinases are expressed as either kinase domains or full length constructs; made in house
Method in brief: as §1

FGFR1 = target: T15, FGFR1 (Homo sapiens, UniProt P11362); test: Kinase inhibition assay (33P transfer), FGFR1; conditions: read-out: FGFR1-1
T15 construct: Kinases are expressed as either kinase domains or full length constructs; made in house

Itk = target: T16, Itk (Homo sapiens, UniProt Q08881); test: Kinase inhibition assay (33P transfer), Itk; conditions: read-out: Itk-1
T16 construct: Kinases are expressed as either kinase domains or full length constructs; made in house
T16 sequence (Q08881 1-620): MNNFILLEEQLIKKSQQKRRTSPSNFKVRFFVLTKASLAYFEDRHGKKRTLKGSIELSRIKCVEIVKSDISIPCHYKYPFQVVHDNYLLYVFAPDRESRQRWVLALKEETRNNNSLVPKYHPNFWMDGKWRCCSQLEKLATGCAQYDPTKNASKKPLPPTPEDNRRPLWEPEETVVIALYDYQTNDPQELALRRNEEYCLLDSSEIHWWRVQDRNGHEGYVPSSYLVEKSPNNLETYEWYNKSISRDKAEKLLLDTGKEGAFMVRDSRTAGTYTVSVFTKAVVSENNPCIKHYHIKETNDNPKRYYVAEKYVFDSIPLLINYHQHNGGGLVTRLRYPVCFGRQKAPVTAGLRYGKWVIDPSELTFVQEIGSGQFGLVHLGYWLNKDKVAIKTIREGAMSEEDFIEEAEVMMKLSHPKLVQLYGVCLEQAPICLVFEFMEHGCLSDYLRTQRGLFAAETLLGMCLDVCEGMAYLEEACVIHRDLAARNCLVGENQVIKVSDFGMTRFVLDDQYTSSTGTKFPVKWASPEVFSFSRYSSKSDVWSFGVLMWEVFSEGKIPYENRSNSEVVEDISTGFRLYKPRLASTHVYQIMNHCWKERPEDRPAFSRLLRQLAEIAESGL
Method in brief: as §1

Fyn = target: T17, Fyn (Homo sapiens, UniProt P06241); test: Kinase inhibition assay (33P transfer), Fyn; conditions: read-out: Fyn-1
T17 construct: Kinases are expressed as either kinase domains or full length constructs; made in house
Method in brief: as §1

Flt-1 = target: T18, Flt-1 (Homo sapiens, UniProt P17948); test: Kinase inhibition assay (33P transfer), Flt-1
T18 construct: Kinases are expressed as either kinase domains or full length constructs; made in house
Method in brief: as §1

Hck-1 = target: T19, Hck-1 (Homo sapiens, UniProt P08631); test: Kinase inhibition assay (33P transfer), Hck; conditions: Table 6, Hck-1 kinase inhibition class
T19 construct: Kinases are expressed as either kinase domains or full length constructs; made in house

T14 sequence (P00533 25-1210, species assumed): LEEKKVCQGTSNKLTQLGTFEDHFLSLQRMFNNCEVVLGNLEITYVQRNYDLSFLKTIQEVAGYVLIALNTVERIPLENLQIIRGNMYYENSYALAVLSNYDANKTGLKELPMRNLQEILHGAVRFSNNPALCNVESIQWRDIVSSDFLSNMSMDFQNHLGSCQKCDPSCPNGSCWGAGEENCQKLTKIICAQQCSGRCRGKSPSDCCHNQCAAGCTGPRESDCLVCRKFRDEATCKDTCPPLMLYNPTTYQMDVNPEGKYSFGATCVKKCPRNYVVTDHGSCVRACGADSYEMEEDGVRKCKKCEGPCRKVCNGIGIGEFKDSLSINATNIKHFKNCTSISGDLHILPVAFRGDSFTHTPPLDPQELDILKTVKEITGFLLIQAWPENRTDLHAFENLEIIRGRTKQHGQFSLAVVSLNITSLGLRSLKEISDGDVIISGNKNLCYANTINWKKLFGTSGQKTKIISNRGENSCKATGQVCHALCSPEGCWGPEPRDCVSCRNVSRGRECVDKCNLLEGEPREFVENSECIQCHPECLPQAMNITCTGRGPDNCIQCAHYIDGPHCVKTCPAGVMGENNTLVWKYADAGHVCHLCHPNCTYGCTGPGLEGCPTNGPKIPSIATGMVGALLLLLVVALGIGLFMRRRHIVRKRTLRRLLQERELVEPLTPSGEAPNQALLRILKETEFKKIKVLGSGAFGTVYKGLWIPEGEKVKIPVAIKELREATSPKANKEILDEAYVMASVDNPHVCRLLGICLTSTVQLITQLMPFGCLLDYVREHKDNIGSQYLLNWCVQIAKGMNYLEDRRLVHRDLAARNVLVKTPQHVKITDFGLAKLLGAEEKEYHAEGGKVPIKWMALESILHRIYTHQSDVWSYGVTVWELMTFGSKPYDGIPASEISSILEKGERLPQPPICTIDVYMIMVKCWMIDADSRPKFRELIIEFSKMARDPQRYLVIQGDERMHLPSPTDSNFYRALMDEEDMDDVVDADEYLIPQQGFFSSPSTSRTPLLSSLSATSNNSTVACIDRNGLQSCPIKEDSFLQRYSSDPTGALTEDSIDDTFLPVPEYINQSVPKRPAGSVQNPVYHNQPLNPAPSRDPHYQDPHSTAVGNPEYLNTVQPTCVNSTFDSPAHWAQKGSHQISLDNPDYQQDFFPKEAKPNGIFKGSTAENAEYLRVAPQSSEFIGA
T15 sequence (P11362 22-822, species assumed): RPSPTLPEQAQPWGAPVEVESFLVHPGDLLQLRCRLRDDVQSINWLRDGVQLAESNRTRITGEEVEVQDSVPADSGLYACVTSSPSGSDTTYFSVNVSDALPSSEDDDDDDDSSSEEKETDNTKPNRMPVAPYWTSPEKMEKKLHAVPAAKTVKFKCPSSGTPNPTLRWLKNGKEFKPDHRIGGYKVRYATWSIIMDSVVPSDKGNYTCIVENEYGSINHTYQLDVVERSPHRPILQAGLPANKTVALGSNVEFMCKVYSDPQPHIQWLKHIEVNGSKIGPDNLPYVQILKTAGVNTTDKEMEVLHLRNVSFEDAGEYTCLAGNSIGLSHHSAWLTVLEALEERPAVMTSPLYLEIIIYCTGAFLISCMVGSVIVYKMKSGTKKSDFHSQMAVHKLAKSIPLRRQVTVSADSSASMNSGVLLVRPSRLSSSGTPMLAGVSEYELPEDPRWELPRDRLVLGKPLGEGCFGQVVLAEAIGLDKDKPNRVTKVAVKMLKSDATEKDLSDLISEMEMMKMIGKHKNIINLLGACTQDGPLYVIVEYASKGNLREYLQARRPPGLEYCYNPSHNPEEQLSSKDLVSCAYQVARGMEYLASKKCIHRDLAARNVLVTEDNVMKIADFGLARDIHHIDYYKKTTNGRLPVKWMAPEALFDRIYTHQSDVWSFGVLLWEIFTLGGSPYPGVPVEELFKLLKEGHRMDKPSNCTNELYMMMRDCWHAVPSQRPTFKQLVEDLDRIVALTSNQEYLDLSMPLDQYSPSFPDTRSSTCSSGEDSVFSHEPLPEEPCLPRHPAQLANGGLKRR
T7 sequence (P04626 23-1255, species assumed): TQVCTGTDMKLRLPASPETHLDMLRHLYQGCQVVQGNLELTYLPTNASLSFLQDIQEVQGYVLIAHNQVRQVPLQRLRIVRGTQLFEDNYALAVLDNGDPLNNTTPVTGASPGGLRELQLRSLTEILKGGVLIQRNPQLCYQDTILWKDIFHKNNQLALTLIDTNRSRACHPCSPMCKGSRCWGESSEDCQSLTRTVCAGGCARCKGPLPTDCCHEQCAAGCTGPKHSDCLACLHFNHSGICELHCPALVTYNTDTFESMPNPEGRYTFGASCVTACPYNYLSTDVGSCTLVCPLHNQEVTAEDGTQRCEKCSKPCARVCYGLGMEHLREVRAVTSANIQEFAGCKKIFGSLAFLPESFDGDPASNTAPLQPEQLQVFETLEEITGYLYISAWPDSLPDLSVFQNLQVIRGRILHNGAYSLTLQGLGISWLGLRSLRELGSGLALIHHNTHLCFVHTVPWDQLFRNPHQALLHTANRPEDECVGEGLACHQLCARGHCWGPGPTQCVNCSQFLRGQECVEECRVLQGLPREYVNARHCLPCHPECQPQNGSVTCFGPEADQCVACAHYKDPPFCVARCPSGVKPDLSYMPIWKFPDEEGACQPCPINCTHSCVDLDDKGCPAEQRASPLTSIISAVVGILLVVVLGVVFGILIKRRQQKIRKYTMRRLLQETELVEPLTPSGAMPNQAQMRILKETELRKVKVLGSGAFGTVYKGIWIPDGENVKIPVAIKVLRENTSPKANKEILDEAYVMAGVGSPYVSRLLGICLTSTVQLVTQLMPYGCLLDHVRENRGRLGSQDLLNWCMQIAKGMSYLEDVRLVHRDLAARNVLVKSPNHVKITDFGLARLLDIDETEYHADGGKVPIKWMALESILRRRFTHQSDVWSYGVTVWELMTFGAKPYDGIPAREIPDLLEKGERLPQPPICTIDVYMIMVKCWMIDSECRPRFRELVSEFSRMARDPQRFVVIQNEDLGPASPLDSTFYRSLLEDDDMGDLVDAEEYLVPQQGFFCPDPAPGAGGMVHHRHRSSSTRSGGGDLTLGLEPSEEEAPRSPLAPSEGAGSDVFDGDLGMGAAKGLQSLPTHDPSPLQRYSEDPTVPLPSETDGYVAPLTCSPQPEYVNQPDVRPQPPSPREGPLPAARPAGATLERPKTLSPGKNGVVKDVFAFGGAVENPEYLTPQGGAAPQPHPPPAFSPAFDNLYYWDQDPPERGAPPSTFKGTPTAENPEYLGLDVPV
T2 sequence (P12931 whole entry, species assumed, the tested form may be a part): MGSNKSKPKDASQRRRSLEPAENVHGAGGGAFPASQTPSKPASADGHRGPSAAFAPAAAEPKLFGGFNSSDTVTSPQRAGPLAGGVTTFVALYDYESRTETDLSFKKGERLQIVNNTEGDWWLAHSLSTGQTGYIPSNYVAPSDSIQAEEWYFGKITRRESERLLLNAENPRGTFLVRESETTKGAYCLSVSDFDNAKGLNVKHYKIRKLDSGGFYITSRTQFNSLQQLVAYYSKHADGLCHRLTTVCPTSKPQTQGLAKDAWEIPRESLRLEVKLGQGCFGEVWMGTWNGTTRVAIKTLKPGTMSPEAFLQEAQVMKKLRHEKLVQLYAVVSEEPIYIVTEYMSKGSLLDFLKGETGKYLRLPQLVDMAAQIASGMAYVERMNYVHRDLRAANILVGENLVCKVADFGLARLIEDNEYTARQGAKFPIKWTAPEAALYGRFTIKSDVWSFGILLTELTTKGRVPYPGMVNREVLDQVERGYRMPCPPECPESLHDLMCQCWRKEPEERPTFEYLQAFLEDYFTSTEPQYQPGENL
T9 sequence (P07949 29-1114): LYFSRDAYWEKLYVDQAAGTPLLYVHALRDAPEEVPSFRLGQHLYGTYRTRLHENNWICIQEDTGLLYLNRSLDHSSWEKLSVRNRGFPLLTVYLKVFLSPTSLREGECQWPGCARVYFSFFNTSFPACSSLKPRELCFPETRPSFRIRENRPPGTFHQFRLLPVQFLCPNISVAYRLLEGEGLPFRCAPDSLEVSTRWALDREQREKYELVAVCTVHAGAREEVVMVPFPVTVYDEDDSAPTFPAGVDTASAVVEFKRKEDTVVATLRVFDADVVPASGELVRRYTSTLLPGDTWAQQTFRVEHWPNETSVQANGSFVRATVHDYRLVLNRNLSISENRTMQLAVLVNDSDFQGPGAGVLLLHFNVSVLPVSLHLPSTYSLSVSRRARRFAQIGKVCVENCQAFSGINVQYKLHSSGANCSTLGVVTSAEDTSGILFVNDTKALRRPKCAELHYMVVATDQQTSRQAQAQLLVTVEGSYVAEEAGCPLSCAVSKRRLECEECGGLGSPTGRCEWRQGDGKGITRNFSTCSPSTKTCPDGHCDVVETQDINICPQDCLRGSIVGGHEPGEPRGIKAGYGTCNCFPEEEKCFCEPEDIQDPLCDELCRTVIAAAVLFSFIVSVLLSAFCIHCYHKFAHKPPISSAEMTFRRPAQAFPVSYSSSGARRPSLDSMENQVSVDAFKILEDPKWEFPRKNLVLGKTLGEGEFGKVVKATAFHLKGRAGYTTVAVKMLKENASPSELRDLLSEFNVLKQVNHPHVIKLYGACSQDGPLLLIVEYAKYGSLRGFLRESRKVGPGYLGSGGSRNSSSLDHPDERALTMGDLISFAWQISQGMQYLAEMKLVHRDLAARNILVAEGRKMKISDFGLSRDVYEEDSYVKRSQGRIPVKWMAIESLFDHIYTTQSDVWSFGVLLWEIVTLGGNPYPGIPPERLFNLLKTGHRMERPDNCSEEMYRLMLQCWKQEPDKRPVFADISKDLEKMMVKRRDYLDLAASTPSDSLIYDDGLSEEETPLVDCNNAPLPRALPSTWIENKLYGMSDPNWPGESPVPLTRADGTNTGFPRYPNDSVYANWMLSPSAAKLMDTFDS

| SMILES | IC50 (Lyn) | IC50 (Src) | IC50 (PDGFRB) | IC50 (AKT) | IC50 (Lck) | IC50 (ErbB4) | IC50 (ErbB2) | IC50 (Zap-70) | IC50 (Ret-1) | IC50 (Kdr) | IC50 (c-Met) | IC50 (Tek) | IC50 (IGFR-1) | IC50 (EGFR) | IC50 (FGFR1) | IC50 (Itk) | IC50 (Fyn) | IC50 (Flt-1) | IC50 (Hck-1) |
| --- | --- | --- | --- | --- | --- | --- | --- | --- | --- | --- | --- | --- | --- | --- | --- | --- | --- | --- | --- |
| COc1cc(Nc2ncnc(-n3c(NCCc4ccccc4)nc4ccccc43)n2)cc(OC)c1OC [Compound 509] | 804 to 4820 nM | > 9.04 µM | 804 to 4820 nM | > 9.04 µM | 804 to 4820 nM | 0.804 to 4.82 µM | 4.82 to 7.03 µM | > 9.04 µM | < 804 nM | < 804 nM | > 9.04 µM | 7.03 to 9.04 µM | > 9.04 µM | 0.804 to 4.82 µM | 804 to 4820 nM | 4.82 to 7.03 µM | > 9.04 µM | 804 to 4820 nM | > 9.04 µM |
| COc1cc(Nc2ncnc(-n3c(N[C@@H](C)c4ccccc4)nc4ccccc43)n2)cc(OC)c1OC [Compound 1033] | < 804 nM | 0.804 to 4.82 µM | < 804 nM | > 9.04 µM | < 804 nM | 0.804 to 4.82 µM | 7.03 to 9.04 µM | > 9.04 µM | < 804 nM | < 804 nM | > 9.04 µM | > 9.04 µM | > 9.04 µM | 4.82 to 7.03 µM | < 804 nM | > 9.04 µM | < 0.804 µM | < 804 nM | > 9.04 µM |
| COc1cc(Nc2ncnc(-n3c(NCc4cccc(Cl)c4)nc4ccccc43)n2)cc(OC)c1OC [Compound 949] | 772 to 4630 nM | > 8.69 µM | < 772 nM | > 8.69 µM | < 772 nM | 0.772 to 4.63 µM | > 8.69 µM | > 8.69 µM | < 772 nM | < 772 nM | 6.76 to 8.69 µM | > 8.69 µM | 6.76 to 8.69 µM | > 8.69 µM | < 772 nM | > 8.69 µM | > 8.69 µM | < 772 nM | > 8.69 µM |
| COc1cc(Nc2ncnc(N3c4ccccc4CC3C)n2)cc(OC)c1OC (stereo not shown) [Compound 610] | < 1020 nM | 1.02 to 6.1 µM | < 1020 nM | > 11.4 µM | < 1020 nM | 1.02 to 6.1 µM | 1.02 to 6.1 µM | > 11.4 µM | < 1020 nM | < 1020 nM | 1.02 to 6.1 µM | 6.1 to 8.9 µM | 1.02 to 6.1 µM | 1.02 to 6.1 µM | < 1020 nM | 1.02 to 6.1 µM | 1.02 to 6.1 µM | < 1020 nM | > 11.4 µM |
| COc1cc(Nc2ncnc(-n3c(NCc4ccccc4Cl)nc4ccccc43)n2)cc(OC)c1OC [Compound 943] | 772 to 4630 nM | > 8.69 µM | < 772 nM | > 8.69 µM | 772 to 4630 nM | 6.76 to 8.69 µM | > 8.69 µM | 4.63 to 6.76 µM | < 772 nM | < 772 nM | > 8.69 µM | 6.76 to 8.69 µM | > 8.69 µM | > 8.69 µM | 772 to 4630 nM | > 8.69 µM | > 8.69 µM | 772 to 4630 nM | > 8.69 µM |
| COc1cc(Nc2ncnc(-n3c(NCc4ccccc4C)nc4ccccc43)n2)cc(OC)c1OC [Compound 511] | 804 to 4820 nM | > 9.04 µM | < 804 nM | > 9.04 µM | < 804 nM | 0.804 to 4.82 µM | 7.03 to 9.04 µM | > 9.04 µM | < 804 nM | < 804 nM | > 9.04 µM | 7.03 to 9.04 µM | > 9.04 µM | > 9.04 µM | < 804 nM | > 9.04 µM | > 9.04 µM | < 804 nM | > 9.04 µM |
| COc1cc(Nc2ncnc(-n3c(NCc4cccc(Br)c4)nc4ccccc43)n2)cc(OC)c1OC [Compound 946] | < 711 nM | > 8 µM | < 711 nM | > 8 µM | 711 to 4270 nM | > 8 µM | > 8 µM | > 8 µM | 711 to 4270 nM | 711 to 4270 nM | 6.22 to 8 µM | > 8 µM | 4.27 to 6.22 µM | 6.22 to 8 µM | < 711 nM | > 8 µM | > 8 µM | 711 to 4270 nM | > 8 µM |
